{
  "source": "patent US8552053B2",
  "about": "“7-substituted indirubin-3′oximes and their applications” (Centre National de la Recherche Scientifique, priority 2005, dated 2013)",
  "key": {"CDK5/p25": {"target": "CDK5/p25 (Homo sapiens, UniProt Q00535)", "sequence (Q00535 whole entry, species assumed)": "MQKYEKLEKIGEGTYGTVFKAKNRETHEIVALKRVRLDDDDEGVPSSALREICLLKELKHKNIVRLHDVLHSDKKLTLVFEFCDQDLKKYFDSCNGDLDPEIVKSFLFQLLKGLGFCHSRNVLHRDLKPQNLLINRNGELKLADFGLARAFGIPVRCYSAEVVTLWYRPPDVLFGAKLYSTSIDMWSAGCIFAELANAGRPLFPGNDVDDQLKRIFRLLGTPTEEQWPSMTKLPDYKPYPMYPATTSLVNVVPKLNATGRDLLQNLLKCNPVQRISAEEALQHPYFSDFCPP", "sequence (Q15078 99-307 partner limits assumed, species assumed)": "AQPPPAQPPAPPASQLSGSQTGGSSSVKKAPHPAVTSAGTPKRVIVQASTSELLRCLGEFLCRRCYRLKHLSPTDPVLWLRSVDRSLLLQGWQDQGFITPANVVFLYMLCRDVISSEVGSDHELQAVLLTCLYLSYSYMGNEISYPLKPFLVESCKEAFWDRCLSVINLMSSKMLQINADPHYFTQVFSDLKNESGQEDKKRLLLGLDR", "experiment": "CDK5/p25 kinase assay", "type": "biochemical, mammalian"}, "[1]": {"test_system": "SH-SY5Y cells differentiated by retinoic acid", "experiment": "Viability of RA-differentiated versus proliferating SH-SY5Y cells, MTS", "type": "cell-based, human", "conditions": "24 h; 7BIO 25 μM, STS 1 μM"}, "SH-SY5Y cells [2]": {"test_system": "SH-SY5Y cells", "experiment": "Nuclear morphology, bisBenzimide and propidium iodide staining", "type": "cell-based, human", "conditions": "24 h; 10 or 25 μM", "protocol": "Following double staining of DNA with BisBenzimide and propidium iodide, cells were examined by fluorescence microscopy. Thick arrows: apoptosis (nuclear fragmentation); thin arrows: secondary necrosis; arrow heads: pycnotic nuclei. Scale bar: 20 μm. Cell death characterization based on nuclear morphology was assessed by double staining with 0.05 μg/ml bisBenzimide and 25 μg/ml propidium iodide. Cell viability was determined by means of the MTS method. Both procedures have been previously described in detail (Ribas and Boix, 2004)."}, "[3]": {"test_system": "AhR-dependent expression of p27^Kip1", "experiment": "p27Kip1 expression in 5 L and BP8 hepatoma cells (Western blotting)", "type": "cell-based, mouse", "conditions": "10 μM, 24 h", "protocol": "Actin Western blotting was used as a loading control. […] Average±s.e. of three determinations. […] Karlsruhe, Institute of Genetics, 76021 Karlsruhe, Germany). […] 6.8, 1 mM EDTA, 2% SDS."}, "[4]": {"test_system": "5 L (AhR+/+) and BP8 (AhR−/−) cells", "conditions": "24 h"}, "cytochome C release": {"test_system": "cytochome C release", "experiment": "Cytochrome C release from mitochondria", "conditions": "12.5 μM, 10 h"}, "p53": {"test_system": "p53", "experiment": "p53 expression, Western blotting", "conditions": "SH-SY5Y cells, 12.5 μM"}, "[5]": {"test_system": "effector caspase activity (DEVDase)", "experiment": "Caspase (DEVDase) assay in SH-SY5Y cells", "type": "cell-based, human", "conditions": "24 h dose-response; time course at 25 μM", "protocol": "The value of control untreated cells is placed at time 0. DEVDase activity was measured as arbitrary fluorescence units. Every point is the mean±s.e. of at least three independent determinations. (B). […] Every point is the mean±s.e. of at least three independent determinations.\n(§1) The measurement of caspase activity is based on determining the fluorescence released from the AcDEVDafc synthetic substrate after its direct addition to the culture medium, detergent lysis, and incubation at 37°. This method is devised to be applied to 96 multiwell plates. It allows kinetic determinations of caspase activation and the characterization of multiple drugs simultaneously. (Ribas et al., 2005)."}, "[6]": {"test_system": "IMR-5, IMR-32, HL-60 and Jurkat cells", "experiment": "Viability of IMR-5, IMR-32, HL-60 and Jurkat cells, MTS", "type": "cell-based, human", "conditions": "24 h", "protocol": "FIG. 15. […] Every point is the mean±s.e. of three independent experiments with six independent measurements per experiment. […] SH-SY5Y, IMR-5 and IMR-32 human neuroblastoma cell lines were grown in DMEM medium from (Biowhittaker) plus 2 mM L-glutamine from Eurobio (Courtaboeuf, France) or DMEM already supplemented with 2 mM L-glutamine (Invitrogen, Barcelona, Spain), plus antibiotics and a 10% volume of FCS (Invitrogen, Cergy Pontoise, France or Barcelona, Spain). SH-SY5Y cell lines permanently transfected with pcDNA3/Bcl-2, pcDNA3/Bcl-XL and empty pcDNA3 vectors were grown like their untransfected counterparts. However, Geneticin (G-418) selection was maintained in the growing cultures before the terminal experiments (Ribas and Boix, 2004). […] HL-60 and Jurkat cells were grown in RPMI 1640 medium with 10% FCS and antibiotics from Invitrogen (Barcelona, Spain)."}, "[7]": {"test_system": "SH-SY5Y cells transfected with pcDNA3/Bcl-2 or pcDNA3/Bcl-XL", "experiment": "Viability of Bcl-2 / Bcl-XL overexpressing SH-SY5Y cells, MTS", "type": "cell-based, human", "conditions": "7BIO 25 μM, STS 2 μM; 9 and 24 h"}, "[8]": {"test_system": "5 L (AhR+/+) and BP8 (AhR−/−) cells", "experiment": "Cell cycle distribution of 5 L and BP8 cells (FACS)", "type": "cell-based, mouse", "conditions": "10 μM, 24 h"}, "MDA-MB-231 cells": {"test_system": "MDA-MB-231 cells", "experiment": "MDA-MB-231 cell proliferation and cell cycle distribution", "type": "cell-based, human", "protocol": "MDA-MB-231 cells (derived from hormone-independent breast cancer) were cultured in DMEM supplemented with 10% FCS. For experiments, these cells were seeded in 24-well boxes or in 35 mm Petri dishes at appropriate densities (4.10^4 cells per well for cell growth experiments; 10^5 cells per dish for cell cycle analysis) and exposed to indirubins as indicated."}, "SH-SY5Y cells [9]": {"test_system": "SH-SY5Y cells", "experiment": "SH-SY5Y cell survival, MTS reduction assay", "type": "cell-based, human", "protocol": "SH-SY5Y, IMR-5 and IMR-32 human neuroblastoma cell lines were grown in DMEM medium from (Biowhittaker) plus 2 mM L-glutamine from Eurobio (Courtaboeuf, France) or DMEM already supplemented with 2 mM L-glutamine (Invitrogen, Barcelona, Spain), plus antibiotics and a 10% volume of FCS (Invitrogen, Cergy Pontoise, France or Barcelona, Spain). SH-SY5Y cell lines permanently transfected with pcDNA3/Bcl-2, pcDNA3/Bcl-XL and empty pcDNA3 vectors were grown like their untransfected counterparts. However, Geneticin (G-418) selection was maintained in the growing cultures before the terminal experiments (Ribas and Boix, 2004). In order to induce differentiation, SH-SY5Y cells were cultured on collagen coated plates and treated with 10 μM RA for five days.\n(§2) Cell death characterization based on nuclear morphology was assessed by double staining with 0.05 μg/ml bisBenzimide and 25 μg/ml propidium iodide. Cell viability was determined by means of the MTS method. Both procedures have been previously described in detail (Ribas and Boix, 2004). For evaluation of DNA laddering, cell DNA was extracted and electrophoresed in 1.5% agarose gels to evidence the internucleosomal fragmentation typical of apoptosis.\nThe effects of each indirubin was tested, at a 25 μM final concentration, on the survival of the neuroblastoma SH-SY5Y cell line after 24 h or 48 h exposure."}, "[10]": {"test_system": "wild-type HCT-116 and HCT-116 sub-clones deprived of p53", "experiment": "Survival of wild-type and p53-deprived HCT-116 cells, MTS", "type": "cell-based, human", "conditions": "24 h", "protocol": "Average±s.e. of three determinations. HCT116 human adenocarcinoma cell line were obtained from Dr. Vogelstein (The Howard Hughes Medical Institute, Sidney Kimmel Comprehensive Cancer Center, The Johns Hopkins School of Medicine, Baltimore, Md. 21231, USA). HCT116 cells were cultured in McCoy's 5A (Biowhittaker) supplemented with antibiotics and 10% FCS. General culture conditions were an atmosphere of 5% CO2 and a temperature of 37° C. Culture dishes and other plastic disposable tools were supplied by Corning (Corning, N.Y., USA). Indirubin treatments were performed on exponentially growing cultures at the indicated time and concentrations. Control experiments were carried also using appropriate dilutions of DMSO."}, "SH-SY5Y cells [11]": {"test_system": "SH-SY5Y cells", "experiment": "DNA laddering (internucleosomal fragmentation)", "type": "cell-based, human", "conditions": "25 μM, 24 h", "protocol": "as §2"}, "SH-SY5Y cells [12]": {"test_system": "SH-SY5Y cells", "experiment": "SH-SY5Y cell death, LDH release assay", "type": "cell-based, human", "conditions": "IO, 5BIO, 6BIO, 7BIO compared (FIG. 3B)", "protocol": "In addition, cell death was estimated 48 h after the addition of each indirubin (25 μM) using the LDH release assay. As MTS reduction is occasionally observed under conditions different from cell death, an independent cell death evaluation procedure was used, the lactate dehydrogenase (LDH) release assay. This assay confirmed the induction of cell death by the indirubins of the invention, despite their overall lack of effects on CDKs and GSK-3."}, "SH-SY5Y cells [13]": {"test_system": "SH-SY5Y cells", "experiment": "SH-SY5Y cell survival, MTS reduction assay", "type": "cell-based, human", "remark": "listed apart in the source"}, "p21^Cip1": {"test_system": "p21^Cip1", "experiment": "p21Cip1 expression, Western blotting", "conditions": "SH-SY5Y cells, 12.5 μM, 12 h"}, "[14]": {"test_system": "effector caspases (DEVDase activity)", "experiment": "Effector caspase activation in IMR-5, IMR-32, HL-60 and Jurkat cells", "type": "cell-based, human", "conditions": "25 μM, 24 h", "protocol": "FIG. 15. […] Every point is the mean±s.e. of three independent experiments with six independent measurements per experiment. […] Bar value is the mean±s.e. of 6 independent determinations.\nas §1"}},
  "note": "Read-outs that look alike come from different tables or passages of the source.",
  "data": [
    {"substance": "(2′Z,3′E)-7-bromoindirubin-3′-oxime [7BIO]", "values": [
      {"measurement": "inhibitory activity on CDK5/p25 (in words)", "setting": "CDK5/p25", "result": "marginal inhibitory activity"},
      {"measurement": "inhibitory activity on CDK5/p25 (in words)", "setting": "CDK5/p25; listed as 24", "result": "weak and gradually decreasing inhibitory activity"},
      {"measurement": "effect of cell differentiation on induced cell death", "setting": "[1]", "result": "negligible effect"},
      {"measurement": "nuclear morphology / PI staining", "setting": "SH-SY5Y cells [2]", "result": "numerous large, unfragmented pycnotic nuclei"},
      {"measurement": "AhR-dependent expression of p27^Kip1", "setting": "[3]", "result": "potently enhance"},
      {"measurement": "dose-response curves of cell death in 5 L versus BP8", "setting": "[4]", "result": "essentially the same"},
      {"measurement": "release of cytochome C from mitochondria", "setting": "cytochome C release", "result": "negligible release"},
      {"measurement": "induction of p53", "setting": "p53", "result": "insignificant"},
      {"measurement": "activation of caspase activity", "setting": "[5]", "result": "remained at the level of control"},
      {"measurement": "induction of cell death", "setting": "[6]", "result": "induced cell death in the same range of concentrations"},
      {"measurement": "protection by Bcl-2 / Bcl-XL overexpression", "setting": "[7]", "result": "neither Bcl-XL nor Bcl-2 overexpression provided any significant protection"},
      {"measurement": "cell cycle distribution of AhR−/− and AhR+/+ cells", "setting": "[8]", "result": "striking AhR-dependent accumulation in G0/G1"},
      {"measurement": "cell cycle distribution", "setting": "MDA-MB-231 cells; 24 h, FACS", "result": "accumulation in G2/M and reduction of G0/G1"},
      {"measurement": "cell proliferation by direct counting", "setting": "MDA-MB-231 cells; 48 h exposure", "result": "dose-dependent inhibition of cell proliferation"},
      {"measurement": "reversibility of the effect by removal of compound", "setting": "MDA-MB-231 cells; medium replaced at 48 h", "result": "poorly if at all reversible"},
      {"measurement": "time required to induce 70% cell death", "setting": "SH-SY5Y cells [9]; 25 μM (FIG. 7)", "result": "≤ 12", "unit": "h"},
      {"measurement": "time to almost complete cell death", "setting": "SH-SY5Y cells [9]; 25 μM (FIG. 7)", "result": "≤ 24", "unit": "h"},
      {"measurement": "effect of Q-VD-Oph on induced cell death", "setting": "SH-SY5Y cells [9]; 25 μM indirubin, 48 h, 10 μM Q-VD-OPh (FIG. 10)", "result": "no effect"},
      {"measurement": "cell death inducing activity, position 7 halogen / N1-methyl series (MTS)", "setting": "SH-SY5Y cells [9]; 48 h (FIG. 4)", "result": "equipotent"},
      {"measurement": "dose-response curves, wild-type versus p53-deprived HCT-116", "setting": "[10]", "result": "essentially the same"},
      {"measurement": "DNA laddering", "setting": "SH-SY5Y cells [11]", "result": "no ladder was observed"},
      {"measurement": "cell death (LDH release)", "setting": "SH-SY5Y cells [12]", "result": "most potent compound"},
      {"measurement": "sensitivity of cell death to the presence of the caspase inhibitor Q-VD-OPh", "setting": "SH-SY5Y cells [13]; 20 μM Q-VD-OPh, MTS 43 h after addition (Table 5)", "result": "completely insensitive"},
      {"measurement": "concentration required to reduce cell survival (MTS reduction)", "setting": "SH-SY5Y cells [13]; 48 h, IO, 5BIO, 6BIO, 7BIO compared (FIG. 3A)", "result": "most potent compound"},
      {"measurement": "induction of p21^Cip1 overexpression", "setting": "p21^Cip1", "result": "negligible effects"},
      {"measurement": "effector caspase activation (DEVDase activity)", "setting": "[14]", "result": "fell consistently below the background"}
    ]}
  ]
}
